# In US20060057101A1, “German cockroach attractant” (priority 2004, published 2006):
# Legend:
# male German cockroaches = test: two-choice olfactometer behavioral assay; assay type: in vivo, Blattella germanica
# Experimental: FIG. 3 is a graphic representation of behavioral responses of male German cockroaches to one female equivalent of a crude extract of many virgin females and to various doses of the synthetic pheromone, gentisyl quinone isovalerate. The pheromone was applied in 20 μl of methylene chloride to a filter paper disc and presented to single males acclimated in the two-choice olfactometer vs. a methylene chloride control filter paper. Behavioral response is defined as quiescent males that were activated and ran out of their cage. Each assay consisted of testing 10-16 males in individual olfactometers and the assays were replicated 3-18 times. The mean responses and SEM are indicated.
# FIG. 4 is a graphic representation of behavioral responses of male German cockroaches to one female equivalent of a crude extract of many virgin females and to various doses of the synthetic pheromone, gentisyl quinone isovalerate. Procedures are as in FIG. 3, but reported is the latency in seconds before males left their cages.
# The biological activity of extracts and fractions was assayed both behaviorally and with an electroantennogram (“EAG”). Schal et al., “Site of Pheromone Production in Female Supella longipalpa (F.) (Dictyoptera: Blattellidae): Behavioral, Electrophysiological, and Morphological Evidence,” Annals Entomol. Soc. Amer. 85:605-611 (1992), which is hereby incorporated by reference in its entirety. For behavioral assays a two-choice olfactometer was used. Liang et al., “Effects of Pheromone Concentration and Photoperiod on the Behavioral Response Sequence to Sex Pheromone in the Male Brown-Banded Cockroach, Supella longipalpa,” J. Insect Behavior 3:211-223 (1990), and Liang et al., “Volatile Sex Pheromone in the Female German Cockroach,” Experientia 49:324-328 (1993a), which are hereby incorporated by reference in their entirety. Briefly, a straight Plexiglas tube (55 cm long and 3 cm ID) was divided along 15 cm of its upwind end and air was drawn through it at 20 cm/min. […] The percentage of insects running upwind and the latency, in seconds, before they responded were recorded.
# [1] = test system: brownbanded cockroach males; details: cited from earlier work
compound,measurement,setting,value
"CC(C)CC(=O)OCC1=CC(=O)C=CC1=O [synthetic pheromone, gentisyl quinone isovalerate]",males responding (quiescent males activated and running out of their cage),"male German cockroaches; 10-100 ng of the pheromone on filter paper, FIG. 3",More than 60%
same,latency of the male response before leaving cage,"male German cockroaches; doses between 10 ng and 1 μg, FIG. 4",shortest latency
same,dose-response of male behavioral response,"male German cockroaches; various doses on filter paper, FIG. 3",clear dose-response
supellapyrone,increase in number of adult males trapped relative to respective controls,"[1]; all treatments, field traps",6-28 times
same,attractiveness to males in the field,"[1]; field, jar traps",highly attractive
